Patent US8653082B2, “6-phenyl-2-[((piperidin-4-ylmethyl)-piperazin-1YL) or piperazin 1-ylmethyl)-piperidin-1-yl)]-imidazo[2,1-B][1,3,4]thiadiazole derivatives and their use” (Urifer Ltd., priority 2009, dated 2014)

Assays:
Assay type in all cases: cell-based
[1] = tested on: HCT116; assay: XTT cell viability, HCT116 colon cancer cells; settings: Homo sapiens, HCT-116; HCT116 colon cancer cell line; XTT test; compound in 30 mM HEPES pH=7, 0.25 to 10 μM; read-out: EC50 values on colon and liver cancer cells, HCT116
Method: (§1) The effect of the compounds Z522-0249, Z522-0251, Erbitux and E-626-0342 on the growth profile of cancer cells which express Fer was tested. The cells that were tested were: the colon cancer cell lines HT29, HCT 116, RKO, SW620, and SW48 and the liver cancer cell line Hep3B. The effect of each of the three compounds (Z522-0249, Z522-0251 and E-626-0342) on FS11 cells, a non malingnant fibroblastic cell line, was also studied.
(§2) Cells were seeded in 96 well microplates and were left to grow untreated overnight. Z522-0249 and Z522-0251 were dissolved in 30 mM HEPES pH=7 and were then added to each well in a dose dependent manner from 0.25 to 10 μM. E626-0342 was dissolved in DMSO and was then added to each well in a dose dependent manner from 0.1 to 5 μM. The concentration of DMSO in each well was 0.4% v/v. Untreated cells and cells subjected to 30 mM HEPEs pH=7 or 0.4% DMSO alone, served as controls. The number of viable cells in each well was determined 48, 72, and 96 hours after compound addition, using the XTT test (Berridge, M. V. et al, 2005).

[2] = tested on: HT29; assay: XTT cell viability, HT29 colon cancer cells; settings: Homo sapiens, HT-29; HT29 colon cancer cell line; XTT test; compound in 30 mM HEPES pH=7, 0.25 to 10 μM; read-out: EC50 values on colon and liver cancer cells, HT29
Method: as §1, §2

[3] = tested on: SW620; assay: XTT cell viability, SW620 colon cancer cells; settings: Homo sapiens, SW-620; SW620 colon cancer cell line; XTT test; compound in 30 mM HEPES pH=7, 0.25 to 10 μM; read-out: EC50 values on colon and liver cancer cells, SW620
Method: as §1, §2

[4] = tested on: SW48; assay: XTT cell viability, SW48 colon cancer cells; settings: Homo sapiens; SW48 colon cancer cell line; XTT test; compound in 30 mM HEPES pH=7, 0.25 to 10 μM; read-out: EC50 values on colon and liver cancer cells, SW48
Method: as §1, §2

[5] = tested on: Hep3B; assay: XTT cell viability, Hep3B liver cancer cells; settings: Homo sapiens; Hep3B liver cancer cell line; XTT test; compound in 30 mM HEPES pH=7, 0.25 to 10 μM; read-out: EC50 values on colon and liver cancer cells, Hep3B
Method: as §1, §2

[6] = tested on: RKO; assay: XTT cell viability, RKO colon cancer cells; settings: Homo sapiens; RKO colon cancer cell line; XTT test; compound in 30 mM HEPES pH=7, 0.25 to 10 μM; read-out: EC50 values on colon and liver cancer cells, RKO
Method: as §1, §2

[7] = tested on: FS (normal fibroblasts); assay: XTT cell viability, FS (normal fibroblasts); settings: Fibroblast; FS normal (non malignant) fibroblasts; XTT test; compound in 30 mM HEPES pH=7, 0.25 to 10 μM
Method: as §1, §2

| EC50 [1] | EC50 [2] | EC50 [3] | EC50 [4] | EC50 [5] | EC50 [6] | Compound | EC50 [7] |
| --- | --- | --- | --- | --- | --- | --- | --- |
| 3000 to 4000 nM | 2000 to 3000 nM | 500 to 1000 nM | 500 to 1000 nM | 1000 to 2000 nM | 2000 to 3000 nM | CC(C)c1ccc(-c2cn3nc(N4CCC(CN5CCN(C)CC5)CC4)sc3n2)cc1 [Z522-0251, 6-(4-isopropyl-phenyl)-2-{4-[(4-methyl-piperazin-1-yl)methyl]piperidin-1-yl}imidazo[2,1-b][1,3,4]thiadiazole] |  |
| 3000 nM | 2000 nM | 500 to 1000 nM | 500 to 1000 nM | 1000 to 2000 nM | 1000 to 2000 nM | CC(C)c1ccc(-c2cn3nc(N4CCN(CC5CCN(C)CC5)CC4)sc3n2)cc1 [Z522-0249, 6-(4-isopropylphenyl)-2-{4-[(1-methylpiperidin-4-yl)methyl]piperazin-1-yl}imidazo[2,1-b][1,3,4]thiadiazole] | 10000 nM |
